Results reported in patent publication US20200088732A1, “METHODS FOR THE DIAGNOSIS AND TREATMENT OF PANCREATIC DUCTAL ADENOCARCINOMA” (INSERM (Institut National de la Santé et de la Recherche …, priority 2017, published 2020).

Legend:
Assay type in all cases: cell-based
[1] = test system: Human pancreatic cancer cell, Panc-1; assay: Cell migration assay (Boyden chambers), Panc-1 cells; details: 100 ng/mL PAP/REG3A recombinant protein, AG490 at 30 μM, P<0.05, FIG. 2C
Description: (§1) Cancer cell migration was studied using PKA4 and PANC-1 cell lines under different media (medium with or without recombinant PAP/REG3A or conditioned medium from acinar cells) on Boyden chambers. Culture inserts from BD Biosciences (353097, Le pont le Claix, FR), with a porous membrane of […], were coated with a mix made of gelatin 0.1% from Sigma-Aldrich (G1890, St Quentin, FR) and fibronectin 10 μg/mL from Sigma-Aldrich (F0895, St Quentin, FR) then seeded with PK4A or PANC-1 cells (100 0000 or 75 000 cells respectively per insert) and placed into wells containing culture media (with or without recombinant PAP/REG3A). PAP/REG3A or […] were used from 0 to 500 ng/mL. Migration was performed for 4 hrs for medium with or without recombinant PAP/REG3A or β and for 1 hr 45 min for conditioned medium from acinar cells. After cleaning and briefly staining inserts with coomassie blue, migration was assessed by counting (Image J software) the number of colored cells in 8-16 high-power fields (magnification ×10).

[2] = test system: Mouse pancreatic cancer cell, Pk4A; assay: Cell invasion assay (matrigel Boyden chambers), PK4A cells; details: PAP/REG3β 500 ng/mL, AG490 30 μmol/L, 24 hrs, P<0.05, FIG. 2D
Description: Cancer cell invasion was studied using PKA4 cells on Boyden chambers according to manufacturer's protocol (354480, Corning Lifesciences, Corning, N.Y., USA). Mouse recombinant PAP/REG3β was used at 500 ng/mL and AG490 at 30 μmol/L. Culture inserts were pre-coated with matrigel matrix then seeded with PK4A (100 0000 cells per insert) and placed into wells containing the medium. Cell counting was measured after 24 hrs of incubation. After cleaning and briefly staining inserts with coomassie blue, invasion was assessed by counting (Image J software) the number of colored cells in 8-16 high-power fields (magnification ×10).

[3] = test system: Mouse pancreatic cancer cell, Pk4A; assay: Cell migration assay (Boyden chambers), Pk4A cells; details: versus ACm/PAP+ media, AG490 30 μM, 1 hr 45 min, P<0.05, FIG. 2E
Description: as §1

[4] = test system: Pk4A cells; assay: Ex vivo peri-neural invasion assay (mouse sciatic nerve co-cultured with cancer cells)
Description: The day before the experiment 125,000 PK4A cells are seeded in 24 well plates in DMEM supplemented with 10% FBS and 1% antibiotic/antimycotic. 24 hrs after inhibitors (AG490 at 30 μmol/L or SC144 at 2 μmol/L) were added for 2 h. […] A mouse sciatic nerve section (5 mm) is placed in every well and cultured for 48 hrs then nerve sections are fixed 24 hrs in 4% formaldehyde and embedded in paraffin for immunohistochemistry study. Nerve sections from each condition are cut to make 4 μm sections from 2 different depths spaced by 50 μm and fixed on slides. Slides are processed for cytokeratin immunostaining by IHC as mentioned above. Cells stained with cytokeratine inside or in contact with nerve are recorded (Image J software).
Using human PDA slides, we observed that PAP/REG3A staining is associated with nerve density (Data not shown). Indeed, nerve fibers are mainly present in tissues areas where PAP/REG3A is strongly expressed. […] To further deepen the suspected role of PAP/REG3A as favoring PNI, we designed a specific ex-vivo experiment. Such experiment was done using mouse sciatic nerve fibers that we incubated with Pk4A cells+/−PAP/REG3β mouse recombinant protein (Data not shown). […]

Row | SMILES | effect of inhibitor on PAP/REG3A-induced Panc-1 migration [1] | effect of inhibitor on PAP/REG3β-induced invasion [2] | change of the ACm/PAP+-induced increase of Pk4A migration [3] | effect of inhibitor on PAP/REG3β-induced nerve fibers invasion by pancreatic cancer cells ([4]; PAP/REG3β 500 ng/mL, AG490 30 μmol/L, FIG. 3A) | PNI relative to acinar cell media containing PAP/REG3β (ACm/PAP+) ([4]; Pk4A with nerve fibers and acinar cell media, SC144 2 μmol/L, P<0.05, FIG. 3B)
1 | N#C/C(=C\c1ccc(O)c(O)c1)C(=O)NCc1ccccc1 [AG490] | impair PAP/REG3A effect on Panc-1 migration | inhibited | significantly reduced | impairs significantly | –
2 | O=C(NNc1nc2cc(F)ccc2n2cccc12)c1cnccn1 [SC144] | – | – | – | – | drastically reduced
